# Results as given in ChEMBL document CHEMBL3817810, “Four new minor brominated indole related alkaloids with antibacterial activities from Laurencia similis” (2016).
# Assays:
# Type in all cases: functional
# [1] = test system: Bacillus subtilis; test: Antibacterial activity against Bacillus subtilis by broth microdilution assay
# [2] = test system: Bacillus thuringiensis; test: Antibacterial activity against Bacillus thuringiensis by broth microdilution assay
# [3] = test system: Staphylococcus aureus; test: Antibacterial activity against Staphylococcus aureus by broth microdilution assay
# [4] = test system: Agrobacterium tumefaciens; test: Antibacterial activity against Agrobacterium tumefaciens by broth microdilution assay
# [5] = test system: Pseudomonas amygdali pv. lachrymans; test: Antibacterial activity against Pseudomonas lachrymans by broth microdilution assay
# [6] = test system: Ralstonia solanacearum; test: Antibacterial activity against Ralstonia solanacearum by broth microdilution assay
# [7] = test system: Xanthomonas vesicatoria; test: Antibacterial activity against Xanthomonas vesicatoria by broth microdilution assay
SMILES,MIC [1] [µg/mL],MIC [2] [µg/mL],MIC [3] [µg/mL],MIC [4] [µg/mL],MIC [5] [µg/mL],MIC [6] [µg/mL],MIC [7] [µg/mL]
Cc1cc(C)c2[nH]c3cc(Br)c(Br)cc3c2c1,> 250,> 250,> 250,> 250,> 250,> 250,50
COC(=O)Nc1cc(Br)c(Br)cc1C(=O)OC,> 250,> 250,> 250,> 250,> 250,> 250,> 250
CC1(C)S[C@@H]2[C@H](NC(=O)Cc3ccccc3)C(=O)N2[C@H]1C(=O)O [PENICILLIN G],0.125,64,0.25,250,250,250,250
Oc1ccc(Cc2c(Br)[nH]c3cc(Br)c(Br)cc23)cc1Br,8,8,2,4,8,4,8
CC(C)=C1C(=O)N(O)c2cc(Br)c(Br)cc21,50,50,12.5,12.5,50,50,> 250
